We go through three molecules from patent US20070174925A1, “Treatment models and uses thereof” (priority 2003, published 2007).

One data set has as its system zebrafish. Nature of the data set: DMSO tolerance of zebrafish. In kind it is in vivo. Particulars: final concentration in fish water. Here is the method:
A further advantage of zebrafish is the fact they live in water. This makes administration of candidate chemicals easy. Moreover, the inventors have discovered that zebrafish are also DMSO tolerant. This is important as many drugs are dissolved in DMSO. The inventors have established that zebrafish can tolerate 1% DMSO. Thus, a candidate drug or other test substance may be dissolved in DMSO and administered to zebrafish by adding to the fish water to give a final concentration of DMSO of at least up to 1%. This is employed in various preferred aspects and embodiments of the present invention.

A further data set has as its system larval zebrafish. Briefly: temperature gradient assay of thermal nociception. In kind it is in vivo. Conditions: for location of fish in temperature gradient versus control fish: fish less than 10 days old, opiate 1 ug/ml or cannabinoid 5 ug/ml in water for 30 minutes at 28° C. before testing, t=10 mins. Here is the method:
1. The ambient environment was prepared through the use of an air handling system to maintain a constant air temperature below 24° C., enabling maintenance of a stable water gradient.
2. A shallow tray was taken of dimensions 2 cm deep, 30 cm long and 20 cm wide. This was filled with oxygenated water from the aquarium, the composition of which is suitable sustain zebrafish. This water was cooled to less than the lowest temperature desired in the gradient.
3. The tray was placed on top of two heating plates: a hot plate, capable of heating to high temperatures, and a hot block. The heights of the blocks were adjusted so that when the tray is placed on top of them the tray lies flat (FIG. 1). It was important to ensure the heating surfaces were symmetrically located under the long axis of the tray to ensure equal heating of both longitudinal halves of the tray.
4. A transparent 30 cm ruler was placed on top of the tray and the boundaries of 4 quadrants marked on it: 0-7.5 cm, 7.5-15 cm, 15-22.5 cm and 22.5-30 cm (FIGS. 2 and 8). These serve to split the gradient up into areas as a means of summarizing temperature choice.
5. Aluminum foil was used to make channels for the fish to swim in. These were water tight and closed at one end and open at the other. […] The open end is necessary so that as water evaporates from the hot end the channels don't dry up. They were then placed in the water with the closed end at the cool end. They were then filled with water. The channels were in the middle of the tray, i.e. not closer to one long side of the tray than the other.
6. The hotplate and hotblock were turned on to achieve a temperature of about 40° C. maintained at the hot end, with the unheated end reaching only 24° C. To measure the temperature at each quadrant boundary, thermometers were placed near the channels at each boundary.
7. When a stable gradient was achieved, fish were taken directly from the fish room (28° C.). As much of the liquid around them as possible was removed. […]
9. At 2, 5 and 10 minutes, the number of fish in each quadrant was counted. […]

The test system of data set [1] is fish sensitized with DNCB. Briefly: DNCB-induced hyperalgesia and its rescue, temperature gradient assay. In kind it is in vivo, zebrafish. Conditions: same DNCB-sensitized fish treated with an opiate and retested; t=5 mins.

In the case of `C[S+](C)[O-]` [DMSO], the “concentration tolerated by zebrafish” value in the data set on zebrafish was found to be 1%.

As for `CCCCC/C=C\C/C=C\C/C=C\C/C=C\CCCC(=O)NCCO` [endogenous cannabinoid, Anandamide], the “location of fish in temperature gradient versus control fish” value in the data set on larval zebrafish is “less aversion to higher temperatures”.

Take `COC(=O)N1CCN(C(=O)Cc2ccc(Cl)c(Cl)c2)C(CN2CCCC2)C1.O=C(O)/C=C/C(=O)O` (centres unmarked) [opiate, GR 89696 Fumerate]: the “location of fish in temperature gradient versus control fish” value with larval zebrafish is “more often found in water of a higher temperature than control fish”. The “location of three week old fish in temperature gradient versus untreated fish” value with larval zebrafish (three week old fish treated with an opiate) is reported as “locate to regions of a higher temperature than untreated fish”. In addition, the “distribution in gradient of DNCB-sensitized fish after treatment and retest (rescue of hyperalgesia)” value in data set [1] is “lose this sensitivity, and their distribution becomes randomized in the gradient”.
